Laboratory results: US9487483B2, “Complement pathway modulators and uses thereof” (priority 2012, dated 2016)

Each molecule was assayed against Recombinant human factor D (Homo sapiens (Human), UniProt P00746) (assay: biochemical). Details: Factor D inhibition data using Method 1; substrate Z-Lys-thiobenzyl, fluorescence readout; read-out: IC50.
Type: biochemical

Sequence of Recombinant human factor D (P00746 26-253): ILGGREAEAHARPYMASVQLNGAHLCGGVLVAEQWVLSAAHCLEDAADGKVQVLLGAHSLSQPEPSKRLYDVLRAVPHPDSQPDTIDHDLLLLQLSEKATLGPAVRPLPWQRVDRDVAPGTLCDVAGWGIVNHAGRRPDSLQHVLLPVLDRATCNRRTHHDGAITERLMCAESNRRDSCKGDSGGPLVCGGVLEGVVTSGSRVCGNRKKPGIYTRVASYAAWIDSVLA

`NC(=O)n1cc(NC(=O)N2[C@@H]3C[C@@H]3C[C@H]2C(=O)N[C@@H]2CCC[C@H](C(F)(F)F)C2)c2ccccc21` [Example 26, (1R,3S,5R)-2-Aza-bicyclo[3.1.0]hexane-2,3-dicarboxylic acid 2-[(1-carbamoyl-1H-indol-3-yl)-amide] 3-[((1R,3S)-3-trifluoromethyl-cyclohexyl)-amide]] and `NC(=O)c1nn(CC(=O)N2[C@@H]3C[C@@H]3C[C@H]2C(=O)N[C@@H]2CCC[C@H](C(F)(F)F)C2)c2ccccc12` [Example 49, 1-{2-Oxo-2-[(1R,3S,5R)-3-((1R,3S)-3-trifluoromethyl-cyclohexylcarbamoyl)-2-aza-bicyclo[3.1.0]hex-2-yl]ethyl}-1H-indazole-3-carboxylic acid amide] are within 1.5-fold of each other in IC50: 26 nM for the first, 29 nM for the second.

Compared with `CC1(C)CCC[C@@H](NC(=O)[C@@H]2C[C@@H](F)CN2C(=O)Nc2cn(C(N)=O)c3ccccc23)C1` [Example 27, (2S,4R)-4-Fluoro-pyrrolidine-1,2-dicarboxylic acid 1-[(1-carbamoyl-1H-indol-3-yl)-amide] 2-[((R)-3,3-dimethyl-cyclohexyl)-amide]], `CC1(C)CCC[C@H](NC(=O)[C@@H]2C[C@H]3C[C@H]3N2C(=O)Cn2nc(C(N)=O)c3ccccc32)C1` [Example 53, 1-{2-[(1R,3S,5R)-3-((S)-3,3-Dimethyl-cyclohexylcarbamoyl)-2-aza-bicyclo[3.1.0]hex-2-yl]-2-oxo-ethyl}-1H-indazole-3-carboxylic acid amide] is 23-fold higher in IC50: 40 nM for the first, 905 nM for the second. The first is the more potent here.

`NC(=O)c1nn(CC(=O)N2[C@@H]3C[C@@H]3C[C@H]2C(=O)NC2CCCC(O)(C(F)(F)F)C2)c2ccccc12` (stereo partly drawn) [Example 31, 1-{2-[(1R,3S,5R)-3-(3-Hydroxy-3-trifluoromethyl-cyclohexylcarbamoyl)-2-aza-bicyclo[3.1.0]hex-2-yl]-2-oxo-ethyl}-1H-indazole-3-carboxylic acid amide] and `NC(=O)c1nn(CC(=O)N2[C@@H]3C[C@@H]3C[C@H]2C(=O)NC2CCCC(O)(C(F)(F)F)C2)c2cnccc12` (stereo partly drawn) [Example 34, 1-{2-[(1R,3S,5R)-3-(3-Hydroxy-3-trifluoromethyl-cyclohexylcarbamoyl)-2-aza-bicyclo[3.1.0]hex-2-yl]-2-oxo-ethyl}-1H-pyrazolo[3,4-c]pyridine-3-carboxylic acid amide] are within 1.5-fold of each other in IC50: 900 nM for the first, 728 nM for the second.

Compared with `CC(=O)c1nn(CC(=O)N2[C@@H]3C[C@@H]3C[C@H]2C(=O)NC2CCCC(OC(F)(F)F)C2)c2ccccc12` (stereo partly drawn) [Example 32, (1R,3S,5R)-2-[2-(3-Acetyl-indazol-1-yl)-acetyl]-2-aza-bicyclo[3.1.0]hexane-3-carboxylic acid (trans-3-trifluoromethoxy-cyclohexyl)-amide], `CO[C@H]1CCC[C@@H](NC(=O)[C@@H]2C[C@H]3C[C@H]3N2C(=O)Cn2nc(C(N)=O)c3ccccc32)C1` [Example 46, 1-{2-[(1R,3S,5R)-3-((1R,3S)-3-Methoxy-cyclohexylcarbamoyl)-2-aza-bicyclo[3.1.0]hex-2-yl]-2-oxo-ethyl}-1H-indazole-3-carboxylic acid amide] is 7.6-fold higher in IC50: 63 nM for the first, 478 nM for the second. The first is the more potent here.

First: NC(=O)c1nn(CC(=O)N2[C@@H]3C[C@@H]3C[C@H]2C(=O)NC2CCCCC2(F)F)c2cnccc12 (stereo partly drawn) [Example 35, 1-{2-[(1R,3S,5R)-3-(2,2-Difluoro-cyclohexylcarbamoyl)-2-aza-bicyclo[3.1.0]hex-2-yl]-2-oxo-ethyl}-1H-pyrazolo[3,4-c]pyridine-3-carboxylic acid amide]
Second: CC1(C)CCC[C@H](NC(=O)[C@@H]2C[C@H]3C[C@H]3N2C(=O)Cn2nc(C(N)=O)c3ccncc32)C1 [Example 55, 1-{2-[(1R,3S,5R)-3-((S)-3,3-Dimethyl-cyclohexylcarbamoyl)-2-aza-bicyclo[3.1.0]hex-2-yl]-2-oxo-ethyl}-1H-pyrazolo[3,4-c]pyridine-3-carboxylic acid amide]
The IC50 of the first is 2.9-fold lower: 774 nM for the first, 2210 nM for the second. The first is the more potent here.

First: CC(=O)c1nn(CC(=O)N2[C@@H]3C[C@@H]3C[C@H]2C(=O)NC2CCCC=C2F)c2ccc(OCc3ncccn3)cc12 (stereo partly drawn) [Example 38, (1R,3S,5R)-2-{2-[3-acetyl-5-(pyrimidin-2-ylmethoxy)-indazol-1-yl]-acetyl}-2-aza-bicyclo[3.1.0]hexane-3-carboxylic acid (2-fluoro-cyclohex-2-enyl)-amide]
Second: Cc1ccc2c(c1)c(C(N)=O)nn2CC(=O)N1[C@@H]2C[C@@H]2C[C@H]1C(=O)N[C@@H]1CCCC(C)(C)C1 [Example 59, 1-{2-[(1R,3S,5R)-3-((R)-3,3-Dimethyl-cyclohexylcarbamoyl)-2-aza-bicyclo[3.1.0]hex-2-yl]-2-oxo-ethyl}-5-methyl-1H-indazole-3-carboxylic acid amide]
The IC50 of the first is 6.6-fold higher: 282 nM for the first, 43 nM for the second.

Compared with `Cc1cc2c(C(N)=O)nn(CC(=O)N3[C@@H]4C[C@@H]4C[C@H]3C(=O)N[C@@H]3CCC[C@H](C(F)(F)F)C3)c2cn1` [Example 50, 5-Methyl-1-{2-oxo-2-[(1R,3S,5R)-3-((1R,3S)-3-trifluoromethyl-cyclohexylcarbamoyl)-2-aza-bicyclo[3.1.0]hex-2-yl]ethyl}-1H-pyrazolo[3,4-c]pyridine-3-carboxylic acid amide], `C[C@H]1CCC[C@@H](NC(=O)[C@@H]2C[C@H]3C[C@H]3N2C(=O)Cn2nc(C(N)=O)c3ccncc32)C1` [Example 51, 1-{2-[(1R,3S,5R)-3-((1R,3S)-3-Methyl-cyclohexylcarbamoyl)-2-aza-bicyclo[3.1.0]hex-2-yl]-2-oxo-ethyl}-1H-pyrazolo[3,4-c]pyridine-3-carboxylic acid amide] is 1.9-fold higher in IC50: 118 nM for the first, 226 nM for the second.

Going from `NC(=O)c1nn(CC(=O)N2[C@@H]3C[C@@H]3C[C@H]2C(=O)NC2CCC(F)(F)C2)c2ccccc12` (stereo partly drawn) [Example 52, 1-{2-[(1R,3S,5R)-3-(3,3-Difluoro-cyclopentylcarbamoyl)-2-aza-bicyclo[3.1.0]hex-2-yl]-2-oxo-ethyl}-1H-indazole-3-carboxylic acid amide] to `CC1(C)CCC[C@@H](NC(=O)[C@@H]2C[C@H]3C[C@H]3N2C(=O)Cn2nc(C(N)=O)c3ccccc32)C1` [Example 54, 1-{2-[(1R,3S,5R)-3-((R)-3,3-Dimethyl-cyclohexylcarbamoyl)-2-aza-bicyclo[3.1.0]hex-2-yl]-2-oxo-ethyl}-1H-indazole-3-carboxylic acid amide], the IC50 falls from 999 nM to 57 nM (18-fold).

`CC1(C)CCC[C@@H](NC(=O)[C@@H]2C[C@H]3C[C@H]3N2C(=O)Cn2nc(C(N)=O)c3ccncc32)C1` [Example 56, 1-{2-[(1R,3S,5R)-3-((R)-3,3-Dimethyl-cyclohexylcarbamoyl)-2-aza-bicyclo[3.1.0]hex-2-yl]-2-oxo-ethyl}-1H-pyrazolo[3,4-c]pyridine-3-carboxylic acid amide] showed an IC50 of 37 nM.

Same assay, conditions: read-out: IC50

Going from `Cc1cc2c(C(N)=O)nn(CC(=O)N3[C@@H]4C[C@@H]4C[C@H]3C(=O)NN3CCCC(C)(C)C3)c2cn1` [Example 29, 1{2-[(1R,3S,5R)-3-(3,3-Dimethyl-pipendin-1-ylcarbamoyl)-2-aza-bicyclo[3.1.0]hex-2-yl]-2-oxo-ethyl}-5-methyl-1H-pyrazolo[3,4-c] pyridine-3-carboxylic acid amide] to `CC(=O)c1nn(CC(=O)N2[C@@H]3C[C@@H]3C[C@H]2C(=O)NN2CCCC(C)(C)C2)c2ccc(OCc3ncccn3)cc12` [Example 30, (1R,3S,5R)-2-{2-[3-Acetyl-5-(pyrimidin-2-ylmethoxy)-indazol-1-yl]-acetyl}-2-aza-bicyclo[3.1.0] hexane-3-carboxylic acid (3,3-dimethyl-piperidin-1-yl)-amide], the IC50 falls from 28 nM to 10 nM (2.8-fold). The second is the more potent here.

`NC(=O)c1nn(CC(=O)N2[C@@H]3C[C@@H]3C[C@H]2C(=O)NC2CCCC(OC(F)(F)F)C2)c2ccccc12` (stereo partly drawn) [Example 33, 1-{2-Oxo-2-[(1R,3S,5R)-3-(trans-3-trifluoromethoxy-cyclohexylcarbamoyl)-2-aza-bicyclo[3.1.0]hex-2-yl]ethyl}-1H-indazole-3-carboxylic acid amide] and `C[C@H]1CCC[C@@H](NC(=O)[C@@H]2C[C@H]3C[C@H]3N2C(=O)Cn2nc(C(N)=O)c3ccccc32)C1` [Example 47, 1-{2-[(1R,3S,5R)-3-((1R,3S)-3-Methyl-cyclohexylcarbamoyl)-2-aza-bicyclo[3.1.0]hex-2-yl]-2-oxo-ethyl}-1H-indazole-3-carboxylic acid amide] are within 1.5-fold of each other in IC50: 121 nM for the first, 91 nM for the second.

Compared with `NC(=O)c1nn(CC(=O)N2[C@@H]3C[C@@H]3C[C@H]2C(=O)N[C@@H]2CCC[C@H](C(F)(F)F)C2)c2cnccc12` [Example 41, 1-{2-Oxo-2-[(1R,3S,5R)-3-((1R,3S)-3-trifluoromethyl-cyclohexylcarbamoyl)-2-aza-bicyclo[3.1.0]hex-2-yl]-ethyl}-1H-pyrazolo[3,4-c]pyridine-3-carboxylic acid amide], `C[C@@H]1CCC[C@H](NC(=O)[C@@H]2C[C@H]3C[C@H]3N2C(=O)Cn2nc(C(N)=O)c3ccccc32)C1` [Example 48, 1-{2-[(1R,3S,5R)-3-((1S,3R)-3-Methyl-cyclohexylcarbamoyl)-2-aza-bicyclo[3.1.0]hex-2-yl]-2-oxo-ethyl}-1H-indazole-3-carboxylic acid amide] is 12-fold higher in IC50: 114 nM for the first, 1320 nM for the second. The first is the more potent here.

Going from `CO[C@H]1CCC[C@H](NC(=O)[C@@H]2C[C@H]3C[C@H]3N2C(=O)Cn2nc(C(C)=O)c3ccccc32)C1` [Example 42, (1R,3S,5R)-2-[2-(3-Acetyl-indazol-1-yl)-acetyl]-2-aza-bicyclo[3.1.0]hexane-3-carboxylic acid ((1S,3S)-3-methoxy-cyclohexyl)-amide] to `CO[C@@H]1CCC[C@@H](NC(=O)[C@@H]2C[C@H]3C[C@H]3N2C(=O)Cn2nc(C(C)=O)c3ccccc32)C1` [Example 43, (1R,3S,5R)-2-[2-(3-Acetyl-indazol-1-yl)-acetyl]-2-aza-bicyclo[3.1.0]hexane-3-carboxylic acid ((1R,3R)-3-methoxy-cyclohexyl)-amide], the IC50 falls from 1070 nM to 323 nM (3.3-fold). The second is the more potent here.

First: CO[C@@H]1CCC[C@H](NC(=O)[C@@H]2C[C@H]3C[C@H]3N2C(=O)Cn2nc(C(C)=O)c3ccccc32)C1 [Example 44, (1R,3S,5R)-2-[2-(3-Acetyl-indazol-1-yl)-acetyl]-2-aza-bicyclo[3.1.0]hexane-3-carboxylic acid ((1S,3R)-3-methoxy-cyclohexyl)-amide]
Second: CO[C@H]1CCC[C@@H](NC(=O)[C@@H]2C[C@H]3C[C@H]3N2C(=O)Cn2nc(C(C)=O)c3ccccc32)C1 [Example 45, (1R,3S,5R)-2-[2-(3-Acetyl-indazol-1-yl)-acetyl]-2-aza-bicyclo[3.1.0]hexane-3-carboxylic acid ((1R,3S)-3-methoxy-cyclohexyl)-amide]
The IC50 of the first is 4.6-fold higher: 1880 nM for the first, 405 nM for the second. The second is the more potent here.
